Results as given in US9930890B2 (priority 2010, dated 2018).

How the values were obtained:
[1] = test system: Phytophthora infestans; assay type: in vivo; conditions: tomato plants, protective spray, active ingredient concentration 100 ppm, evaluation 7 days after inoculation; 0% = control, 100% = no infection
[2] = test system: Plasmopara viticola; assay: Plasmopara test (grapevine)/protective; assay type: in vivo; conditions: grapevine young plants, protective spray, active ingredient concentration 10 ppm, evaluation 6 days after inoculation; 0% = control, 100% = no infection
Description: Plasmopara Test (Grapevine)/Protective
To produce an appropriate active ingredient formulation, 1 part by weight of active ingredient is mixed with the specified amounts of solvent and emulsifier, and the concentrate is diluted with water to the desired concentration.
To test for protective efficacy, young plants are sprayed with the active ingredient formulation at the stated application rate. After the spray coating has dried on, the plants are inoculated with an aqueous spore suspension of Plasmopara viticola and then remain in an incubation cabin at approx. 20° C. and 100% relative air humidity for 1 day. Subsequently, the plants are placed in a greenhouse at approx. 21° C. and approx. 90% air humidity for 4 days. The plants are then moistened and placed in an incubation cabin for 1 day.
Evaluation follows 6 days after the inoculation. 0% means an efficacy which corresponds to that of the control, whereas an efficacy of 100% means that no infection is observed.
In this test, the following inventive compounds show, at an active ingredient concentration of 10 ppm, an efficacy of 70% or more: […]

[3] = for logp [a]: pH 2.7; for logp [b]: pH 7.8

| SMILES | Eff. % [1] [%] | Eff. % [2] [%] | logp [a] [3] | logp [b] [3] |
| --- | --- | --- | --- | --- |
| CON=C(C)c1cccc(C2CC(c3csc(C4CCN(C(=O)Cn5nc(C(F)(F)F)cc5C)CC4)n3)=NO2)c1 (mixture of isomers) [I-3] | 100 | 97 | 3.7[a] |  |
| CCON=C(C)c1cccc(C2CC(c3csc(C4CCN(C(=O)Cn5nc(C(F)F)cc5C(F)F)CC4)n3)=NO2)c1 (mixture of isomers) [I-5] | 100 | 87 |  |  |
| Cc1cc(C(F)(F)F)nn1CC(=O)N1CCC(c2nc(C3=NOC(c4cccc(C=NO)c4)C3)cs2)CC1 (mixture of isomers) [I-10] | 100 | 92 |  |  |
| Cc1ccc(Cl)cc1NC(=O)N1CCC(c2nc(C3=NOC(c4cccc(C=NO)c4)C3)cs2)CC1 (mixture of isomers) [I-14] | 100 | 100 |  |  |
| CON=Cc1cccc(C2CC(c3csc(C4CCN(C(=O)Cn5nc(C(F)(F)F)cc5C)CC4)n3)=NO2)c1 (mixture of isomers) [I-15] | 100 | 81 |  |  |
| CON=Cc1cccc(C2CC(c3csc(C4CCN(C(=O)Cn5nc(C(F)F)cc5C(F)F)CC4)n3)=NO2)c1 (mixture of isomers) [I-16] |  | 94 |  |  |
| CC(=NO)c1cccc(C2CC(c3csc(C4CCN(C(=O)Cn5nc(C(F)F)cc5C(F)F)CC4)n3)=NO2)c1 (mixture of isomers) [I-18] | 100 | 100 |  |  |
| CON=Cc1cccc(C2CC(c3csc(C4CCN(C(=O)Nc5cc(Cl)ccc5C)CC4)n3)=NO2)c1 (mixture of isomers) [I-19] | 100 | 100 |  |  |
| CON=C(C)c1cccc(C2CC(c3csc(C4CCN(C(=O)Cn5nc(C(F)F)cc5C(F)F)CC4)n3)=NO2)c1 (mixture of isomers) [I-21] | 100 | 100 |  |  |
| O=C(Cn1nc(C(F)F)cc1C(F)F)N1CCC(c2nc(C3=NOC(c4cccc(C=NO)c4)C3)cs2)CC1 (mixture of isomers) [I-22] | 100 | 100 |  |  |
| CON=C(C)c1cccc(C2CC(c3csc(C4CCN(C(=O)Nc5cc(Cl)ccc5C)CC4)n3)=NO2)c1 (mixture of isomers) [I-23] | 100 | 98 |  |  |
| CCON=Cc1ccccc1C1CC(c2csc(C3CCN(C(=O)Cn4nc(C(F)F)cc4C(F)F)CC3)n2)=NO1 (mixture of isomers) [I-27] | 100 | 99 |  |  |
| CON=C(C)c1ccccc1C1CC(c2csc(C3CCN(C(=O)Cn4nc(C(F)(F)F)cc4C)CC3)n2)=NO1 (mixture of isomers) [I-31] | 100 | 97 |  |  |
| CON=C(C)c1ccccc1C1CC(c2csc(C3CCN(C(=O)Cn4nc(C(F)F)cc4C(F)F)CC3)n2)=NO1 (mixture of isomers) [I-32] | 100 | 85 |  |  |
| O=C(Cn1nc(C(F)F)cc1C(F)F)N1CCC(c2nc(C3=NOC(c4ccccc4C=NO)C3)cs2)CC1 (mixture of isomers) [I-35] | 95 | 100 |  |  |
| Cc1ccc(Cl)cc1NC(=O)N1CCC(c2nc(C3=NOC(c4ccccc4C=NO)C3)cs2)CC1 (mixture of isomers) [I-36] | 100 | 100 |  |  |
| CC(=O)Nc1ccc(C2CC(c3csc(C4CCN(C(=O)Cn5nc(C(F)F)cc5C(F)F)CC4)n3)=NO2)cc1 (racemic) [I-25] |  | 97 | 2.2[a], |  |
| COCCS(=O)(=O)Cc1ccccc1C1CC(c2csc(C3CCN(C(=O)Cn4nc(C(F)(F)F)cc4C)CC3)n2)=NO1 (racemic) [I-45] | 94 |  | 3.64[a] |  |
| Cc1ccc(S(=O)(=O)Oc2ccccc2C2(C)CC(c3csc(C4CCN(C(=O)Cn5nc(C(F)F)cc5C(F)F)CC4)n3)=NO2)cc1 (racemic) [I-48] | 94 |  | 4.31[a], | 4.15[b] |
| Cc1ccc(S(=O)(=O)Oc2ccccc2C2(C)CC(c3csc(C4CCN(C(=O)Cn5nc(C(F)F)cc5C)CC4)n3)=NO2)cc1 (racemic) [I-49] | 94 |  | 4.05[a], | 3.9[b] |
| CS(=O)(=O)Oc1ccc(F)c(C2CC(c3csc(C4CCN(C(=O)Cn5nc(C(F)F)cc5C(F)F)CC4)n3)=NO2)c1F (racemic) [I-50] | 94 |  | 2.95[a], | 2.88[b] |
| Cc1cc(C(F)F)nn1CC(=O)N1CCC(c2nc(C3=NOC(c4ccccc4OS(C)(=O)=O)C3)cs2)CC1 (racemic) [I-51] | 97 |  | 2.59[a], | 2.61[b] |
| Cc1ccc(C)c(NC(=O)N2CCC(c3nc(C4=NOC(c5c(Cl)cccc5OS(C)(=O)=O)C4)cs3)CC2)c1 (racemic) [I-52] | 94 |  | 3.35[a], | 3.25[b] |

| SMILES | Eff. % [1] [%] | Eff. % [2] [%] | logp [a] [3] | logp [b] [3] |
| --- | --- | --- | --- | --- |
| O=C(Cn1nc(C(F)F)cc1C(F)F)N1CCC(c2nc(C3=NOC(c4ccccc4OCC#Cc4cccc5ccccc45)C3)cs2)CC1 (stereo not shown) [I-2] | 100 |  | 4.81[a], | 4.68[b] |
| CS(=O)(=O)Oc1cc(Cl)ccc1C1CC(c2csc(C3CCN(C(=O)Cn4nc(C(F)F)cc4C(F)F)CC3)n2)=NO1 (stereo not shown) [I-70] | 97 |  | 3.27[a], | 3.27[b] |
| N#CCOc1cc(Cl)ccc1C1CC(c2csc(C3CCN(C(=O)Cn4nc(C(F)F)cc4C(F)F)CC3)n2)=NO1 (stereo not shown) [I-71] | 100 |  | 3.23[a], | 3.22[b] |
| N#CCOc1cccc(Cl)c1C1CC(c2csc(C3CCN(C(=O)Cn4nc(C(F)F)cc4C(F)F)CC3)n2)=NO1 (stereo not shown) [I-75] |  | 100 | 3.19[a], | 3.11[b] |
| C=CCOCc1ccccc1C1CC(c2csc(C3CCN(C(=O)Cn4nc(C(F)(F)F)cc4C)CC3)n2)=NO1 (stereo not shown) [I-93] | 95 |  | 3.84[a] |  |
| C=CCOCc1ccccc1C1CC(c2csc(C3CCN(C(=O)Cn4nc(C(F)F)cc4C(F)F)CC3)n2)=NO1 (stereo not shown) [I-94] | 100 |  | 3.63[a] |  |
| Cc1cc(C(F)(F)F)nn1CC(=O)N1CCC(c2nc(C3=NOC(c4cccc(OCC#N)c4)C3)cs2)CC1 (stereo not shown) [I-95] | 100 |  | 3.06[a], | 2.97[b] |
| Cc1cc(C(F)(F)F)nn1CC(=O)N1CCC(c2nc(C3=NOC(c4ccc(OS(C)(=O)=O)cc4)C3)cs2)CC1 (stereo not shown) [I-96] | 95 |  | 2.9[a], | 2.81[b] |
| CCS(=O)(=O)Oc1ccc(C2CC(c3csc(C4CCN(C(=O)Cn5nc(C(F)(F)F)cc5C)CC4)n3)=NO2)cc1 (stereo not shown) [I-97] | 95 |  | 3.14[a], | 3.05[b] |
| Cc1cc(C(F)(F)F)nn1CC(=O)N1CCC(c2nc(C3=NOC(c4ccc(OS(=O)(=O)C5CC5)cc4)C3)cs2)CC1 (stereo not shown) [I-98] | 95 |  | 3.22[a], | 3.13[b] |
| CCS(=O)(=O)Oc1cccc(C2CC(c3csc(C4CCN(C(=O)Cn5nc(C(F)(F)F)cc5C)CC4)n3)=NO2)c1 (stereo not shown) [I-99] | 100 |  | 3.18[a], | 3.08[b] |
| COCCSCc1ccccc1C1CC(c2csc(C3CCN(C(=O)Cn4nc(C(F)F)cc4C(F)F)CC3)n2)=NO1 (stereo not shown) [I-100] | 100 |  | 3.5[a] |  |
| Cc1cc(C(F)(F)F)nn1CC(=O)N1CCC(c2nc(C3=NOC(c4cccc(OS(=O)(=O)C5CC5)c4)C3)cs2)CC1 (stereo not shown) [I-101] | 100 |  | 3.25[a], | 3.12[b] |
| C=CC(=O)Oc1ccccc1C1CC(c2csc(C3CCN(C(=O)Cn4nc(C(F)(F)F)cc4C)CC3)n2)=NO1 (stereo not shown) [I-104] | 97 |  | 3.38[a], | 3.3[b] |
| O=C(Cn1nc(C(F)F)cc1C(F)F)N1CCC(c2nc(C3=NOC(c4ccccc4OC(=O)C4(Cl)CC4)C3)cs2)CC1 (stereo not shown) [I-107] | 100 |  | 3.66[a], | 3.57[b] |
| Cc1cc(C(F)(F)F)nn1CC(=O)N1CCC(c2nc(C3=NOC(c4ccccc4NC=O)C3)cs2)CC1 (stereo not shown) [I-109] | 100 |  | 2.49[a], | 2.39[b] |
| N#CCOc1cccc(C2CC(c3csc(C4CCN(C(=O)Cn5nc(C(F)F)cc5C(F)F)CC4)n3)=NO2)c1 (stereo not shown) [I-110] | 100 |  | 2.95[a], | 2.88[b] |
| Cc1cc(C(F)(F)F)nn1CC(=O)N1CCC(c2nc(C3=NOC(c4cccc(F)c4OCC#N)C3)cs2)CC1 (stereo not shown) [I-111] | 98 |  | 3.22[a], | 3.13[b] |
| O=C(O)c1ccccc1C1CC(c2csc(C3CCN(C(=O)Cn4nc(C(F)F)cc4C(F)F)CC3)n2)=NO1 (stereo not shown) [I-134] | 93 |  | 2.63[a] |  |
| CCNC(=O)Oc1ccccc1C1CC(c2csc(C3CCN(C(=O)Cn4nc(C(F)F)cc4C(F)F)CC3)n2)=NO1 (stereo not shown) [I-136] | 93 |  | 2.84[a], | 2.81[b] |
| O=C(Cn1nc(C(F)F)cc1C(F)F)N1CCC(c2nc(C3=NOC(c4cccc(OCC#Cc5cccc6ccccc56)c4)C3)cs2)CC1 (stereo not shown) [I-137] | 100 |  | 4.6[a], | 4.71[b] |
| C=CCOCc1ccccc1C1CC(c2csc(C3CCN(C(=O)Cn4nc(C(F)F)cc4C(F)F)CC3)n2)=NO1 (stereo not shown) [I-139] | 80 |  | 4.11[a] |  |
